Assay results: the NIST ThermoML archive (doi:10.1016/j.tca.2009.03.005)

Legend:
[1] = Molar enthalpy of transition or fusion; conditions: Crystal 2; DSC
[2] = molar heat capacity at constant pressure; conditions: 101.33 kPa
[3] = DTA

O=N[O-].[Na+] [sodium nitrite]
Conditions	Molar enthalpy of transition or fusion [kcal/mol]
[1]	3.32

[2]
Conditions	molar heat capacity at constant pressure [J/K/mol]
273.15 K, Crystal 3, Small sample (50 mg) DSC	85.2
278.15 K, Crystal 3, Small sample (50 mg) DSC	85.3
283.15 K, Crystal 3, Small sample (50 mg) DSC	86
288.15 K, Crystal 3, Small sample (50 mg) DSC	86.6
293.15 K, Crystal 3, Small sample (50 mg) DSC	87.3
298.15 K, Crystal 3, Small sample (50 mg) DSC	88.1
303.15 K, Crystal 3, Large sample (1 g) DSC	85.3
303.15 K, Crystal 3, Small sample (50 mg) DSC	88.8
308.15 K, Crystal 3, Small sample (50 mg) DSC	90.1
313.15 K, Crystal 3, Small sample (50 mg) DSC	90.8
318.15 K, Crystal 3, Small sample (50 mg) DSC	91.8
323.15 K, Crystal 3, Large sample (1 g) DSC	89.3
323.15 K, Crystal 3, Small sample (50 mg) DSC	92.8
328.15 K, Crystal 3, Small sample (50 mg) DSC	94
333.15 K, Crystal 3, Small sample (50 mg) DSC	95.3
338.15 K, Crystal 3, Small sample (50 mg) DSC	96.7
343.15 K, Crystal 3, Large sample (1 g) DSC	94.1
343.15 K, Crystal 3, Small sample (50 mg) DSC	98
348.15 K, Crystal 3, Small sample (50 mg) DSC	99.8
353.15 K, Crystal 3, Small sample (50 mg) DSC	101.3
358.15 K, Crystal 3, Small sample (50 mg) DSC	102.5
363.15 K, Crystal 3, Large sample (1 g) DSC	99.9
363.15 K, Crystal 3, Small sample (50 mg) DSC	103.5
368.15 K, Crystal 3, Small sample (50 mg) DSC	106.2
373.15 K, Crystal 3, Small sample (50 mg) DSC	108.2
378.15 K, Crystal 3, Small sample (50 mg) DSC	109.9
383.15 K, Crystal 3, Large sample (1 g) DSC	107.8
383.15 K, Crystal 3, Small sample (50 mg) DSC	111.6
388.15 K, Crystal 3, Small sample (50 mg) DSC	115.3
393.15 K, Crystal 3, Small sample (50 mg) DSC	118.2
398.15 K, Crystal 3, Small sample (50 mg) DSC	121.5
403.15 K, Crystal 3, Large sample (1 g) DSC	119.3
403.15 K, Crystal 3, Small sample (50 mg) DSC	124.4
408.15 K, Crystal 3, Small sample (50 mg) DSC	130
413.15 K, Crystal 3, Small sample (50 mg) DSC	135.6
418.15 K, Crystal 3, Small sample (50 mg) DSC	142.7
419.15 K, Crystal 3, Small sample (50 mg) DSC	144.39
420.15 K, Crystal 3, Small sample (50 mg) DSC	146.16
421.15 K, Crystal 3, Small sample (50 mg) DSC	148.05
422.15 K, Crystal 3, Small sample (50 mg) DSC	150.11
423.15 K, Crystal 3, Small sample (50 mg) DSC	152.4
424.15 K, Crystal 3, Small sample (50 mg) DSC	154.72
425.15 K, Crystal 3, Small sample (50 mg) DSC	157.33
426.15 K, Crystal 3, Small sample (50 mg) DSC	160.25
427.15 K, Crystal 3, Small sample (50 mg) DSC	163.31
428.15 K, Crystal 3, Small sample (50 mg) DSC	166.7
429.15 K, Crystal 3, Small sample (50 mg) DSC	170.6
430.15 K, Crystal 3, Small sample (50 mg) DSC	175.1
431.15 K, Crystal 3, Small sample (50 mg) DSC	180.4
437.25 K, Crystal 2, Small sample (50 mg) DSC	215.4
437.35 K, Crystal 2, Small sample (50 mg) DSC	213.7
437.45 K, Crystal 2, Small sample (50 mg) DSC	213.5
437.55 K, Crystal 2, Small sample (50 mg) DSC	213.7
437.75 K, Crystal 2, Small sample (50 mg) DSC	215.5
437.85 K, Crystal 2, Small sample (50 mg) DSC	217.1
437.95 K, Crystal 2, Small sample (50 mg) DSC	220.4
438.05 K, Crystal 2, Small sample (50 mg) DSC	223.4
438.15 K, Crystal 2, Small sample (50 mg) DSC	223.6
468.15 K, Crystal 1, Small sample (50 mg) DSC	129
473.15 K, Crystal 1, Small sample (50 mg) DSC	129.8
478.15 K, Crystal 1, Small sample (50 mg) DSC	130.8
483.15 K, Crystal 1, Large sample (1 g) DSC	131.6
483.15 K, Crystal 1, Small sample (50 mg) DSC	131.9
488.15 K, Crystal 1, Small sample (50 mg) DSC	133.2
493.15 K, Crystal 1, Small sample (50 mg) DSC	134.7
498.15 K, Crystal 1, Small sample (50 mg) DSC	136
503.15 K, Crystal 1, Large sample (1 g) DSC	138.7
503.15 K, Crystal 1, Small sample (50 mg) DSC	137.8
508.15 K, Crystal 1, Small sample (50 mg) DSC	140
513.15 K, Crystal 1, Small sample (50 mg) DSC	142.4
518.15 K, Crystal 1, Small sample (50 mg) DSC	145.2
521.15 K, Crystal 1, Small sample (50 mg) DSC	147.7
522.15 K, Crystal 1, Small sample (50 mg) DSC	148.5
523.15 K, Crystal 1, Large sample (1 g) DSC	148.8
523.15 K, Crystal 1, Small sample (50 mg) DSC	148.9
524.15 K, Crystal 1, Small sample (50 mg) DSC	149.8
525.15 K, Crystal 1, Small sample (50 mg) DSC	150.9
526.15 K, Crystal 1, Small sample (50 mg) DSC	152
527.15 K, Crystal 1, Small sample (50 mg) DSC	153
528.15 K, Crystal 1, Small sample (50 mg) DSC	153.2
529.15 K, Crystal 1, Small sample (50 mg) DSC	155
530.15 K, Crystal 1, Small sample (50 mg) DSC	156
531.15 K, Crystal 1, Small sample (50 mg) DSC	157.5
532.15 K, Crystal 1, Small sample (50 mg) DSC	158.7
533.15 K, Crystal 1, Large sample (1 g) DSC	161.2
533.15 K, Crystal 1, Small sample (50 mg) DSC	160.2
534.15 K, Crystal 1, Small sample (50 mg) DSC	161.8
535.15 K, Crystal 1, Small sample (50 mg) DSC	163.1
536.15 K, Crystal 1, Small sample (50 mg) DSC	165.7
537.15 K, Crystal 1, Small sample (50 mg) DSC	168
538.15 K, Crystal 1, Small sample (50 mg) DSC	169.8
539.15 K, Crystal 1, Small sample (50 mg) DSC	173.2
540.15 K, Crystal 1, Small sample (50 mg) DSC	176.4

[2], Liquid, Small sample (50 mg) DSC
Conditions	molar heat capacity at constant pressure [J/K/mol]
562.15 K	116.8
563.15 K	110
564.15 K	110.2
565.15 K	109.9
566.15 K	110.2
568.15 K	110.9
573.15 K	111.9
578.15 K	112.3
583.15 K	112.6

[3]
Conditions	Normal melting temperature [°C]	Triple point temperature [K]
Crystal 1	280.1	–
Crystal 2	–	438.7
Crystal 3	–	437.2
